# Assay results from patent US11311522B1 (Cavion, Inc., priority 2018, dated 2022).
# What was measured:
# cardiovascular function = assay: Cardiovascular function in anesthetized vagotomized dogs, IV; format: in vivo, dog; details: 10 mg/kg IV
# Cav3 = test system: T1, Cav3; assay: Cav3 potency and state dependency, summary of Cav3 antagonist pharmacological properties; format: cell-based
# T1 construct: rows headed: Cav3 potency
# [1] = PN001/Part II: safety and tolerability; format: in vivo, human
# Procedure: No serious adverse events were reported in the subjects who received CX-8998. One placebo-treated subject experienced a serious adverse event (peritonsillar abscess). The subject was admitted to the hospital for treatment with oral and intravenous antibiotics and was discontinued from the study because of this event. […] Each treatment period was separated from the previous one by an approximate 2-week washout, and all treatments were administered in the morning after an overnight fast. Electroencephalograms were recorded before and at selected time points for up to 24 hours after dosing in each treatment period. Cognitive and subjective assessments, including the Karolinska Sleepiness Scale and Bond-Lader visual analog scale, were also performed. 5.3.1.2.2 Pharmacodynamic Data Alpha rhythm is seen posterior brain regions in healthy adults during quiet wakefulness. It originates in the thalamus and is driven by Cav3 channel activity (Schreckenberger, 2004). Agitated, awake individuals may not display an alpha rhythm. […] Reductions in alpha power during the eyes closed position, were generally observed throughout the 24-hour postdose evaluation period for the 18 mg dose and were generally consistent across electrode sites.
# [2] = test system: patients with essential tremor; assay: T-CALM: TETRAS performance subscale (TETRAS-PS); details: for >5 to 10 point worsening / >10 point worsening: TETRAS-PS
# [3] = Day 28, independent video raters
# [4] = Independent Video Raters, subgroup Baseline TETRAS-PS Severity <=Median, N=22
# [5] = Independent Video Raters, subgroup Baseline TETRAS-PS Severity > Median, N=16
# [6] = Independent Video Raters, subgroup No Beta-blocker Use at Day 1, N=20
# [7] = Independent Video Raters, subgroup No Concurrent Tremor Medication at Day 1, N=14
# [8] = Independent Video Raters, subgroup Using Beta-blocker at Day 1, N=18
# [9] = Independent Video Raters, subgroup Using Concurrent Tremor Medication at Day 1, N=24
# [10] = Investigator Rated, subgroup Baseline TETRAS-PS Severity <=Median, N=22
# [11] = Investigator Rated, subgroup Baseline TETRAS-PS Severity > Median, N=15
# [12] = Investigator Rated, subgroup No Beta-blocker Use at Day 1, N=19
# [13] = Investigator Rated, subgroup No Concurrent Tremor Medication at Day 1, N=14
# [14] = Investigator Rated, subgroup Using Beta-blocker at Day 1, N=18
# [15] = Investigator Rated, subgroup Using Concurrent Tremor Medication at Day 1, N=23
smiles,measurement,setting,value
CC(C)c1ccc(CC(=O)N[C@H](C)c2ccc(OCC(F)(F)F)cn2)cc1 [CX-8998],Decrease in mean arterial pressure,cardiovascular function,15%
same,Increase in PR interval,cardiovascular function,7%
same,IC50,Cav3,70 to 100 nM
same,At least 1 adverse event,[1]; 5 mg,8 (66.7) n (%)
same,Dizziness,[1]; 5 mg,1 (8.3) n (%)
same,Drowsiness,[1]; 5 mg,3 (25.0) n (%)
same,Euphoric mood,[1]; 5 mg,1 (8.3) n (%)
same,Feeling of relaxation,[1]; 5 mg,1 (8.3%) n (%)
same,Floating feeling,[1]; 5 mg,1 (8.) n (%)
same,Gastrointestinal Disorders,[1]; 5 mg,2 (16.7) n (%)
same,Headache,[1]; 5 mg,1 (8.3) n (%)
same,Intermittent headache,[1]; 5 mg,0 n (%)
same,Nausea,[1]; 5 mg,2 (16.7) n (%)
same,Nervous System Disorders,[1]; 5 mg,4 (33.3) n (%)
same,Psychiatric Disorders,[1]; 5 mg,4 (33.3) n (%)
same,Sleep disturbance,[1]; 5 mg,1 (8.3) n (%)
same,Vivid dreams,[1]; 5 mg,2 (16.7) n (%)
same,At least 1 adverse event,[1]; 18 mg,11 (91.7) n (%)
same,Dizziness,[1]; 18 mg,3 (25.0) n (%)
same,Drowsiness,[1]; 18 mg,3 (25.0) n (%)
same,Euphoric mood,[1]; 18 mg,3 (25.0) n (%)
same,Feeling of relaxation,[1]; 18 mg,3 (25.0) n (%)
same,Floating feeling,[1]; 18 mg,1 (8.3) n (%)
same,Gastrointestinal Disorders,[1]; 18 mg,1 (8.3) n (%)
same,Headache,[1]; 18 mg,3 (25.0) n (%)
same,Intermittent headache,[1]; 18 mg,2 (16.7) n (%)
same,Nausea,[1]; 18 mg,1 (8.3) n (%)
same,Nervous System Disorders,[1]; 18 mg,8 (66.7) n (%)
same,Psychiatric Disorders,[1]; 18 mg,6 (50.0) n (%)
same,Sleep disturbance,[1]; 18 mg,2 (16.7) n (%)
same,Vivid dreams,[1]; 18 mg,2 (16.7) n (%)
same,Tolerability,[1]; single doses of 5 and 18 mg,generally well tolerated
same,"Change from baseline in TETRAS-PS rated by physician, LS mean",[2]; Day 15 (8 mg BID),−3.1
same,"Change from baseline in TETRAS-PS rated by physician, LS mean",[2]; Day 28 (10 mg BID),−4.6
same,TETRAS-PS LS mean difference from placebo (95% CI),[2]; [3],"0.5 (−1.5, 2.5)"
same,"TETRAS-PS total score, Mean (SD)",[2]; [3],21.1 (6.71)
same,"TETRAS-PS total score, Median",[2]; [3],20.0
same,TETRAS-PS LS mean difference from placebo (95% CI),"[2]; Day 28, investigator rated","−2.0 (−4.0, 0.0)"
same,"TETRAS-PS total score, Median","[2]; Day 28, investigator rated",22.5
same,"TETRAS-PS Total Score change from baseline to Day 28, LS mean difference from placebo (95% CI)","[2]; Independent Video Raters, subgroup Baseline TETRAS-PS Severity <=Median","1.2 (−1.1, 3.4)"
same,"TETRAS-PS Total Score change from baseline to Day 28, LS mean (SE)",[2]; [4],−0.6 (0.82)
same,"TETRAS-PS Total Score change from baseline to Day 28, Median (minimum, maximum)",[2]; [4],"0 (−9.5, 7.0)"
same,"TETRAS-PS Total Score change from baseline to Day 28, Mean (SD)","[2]; Independent Video Raters, subgroup Baseline TETRAS-PS Severity <=Median, N=22, titrated up to 10 mg BID",−0.1 (3.98)
same,"TETRAS-PS Total Score change from baseline to Day 28, LS mean difference from placebo (95% CI)","[2]; Independent Video Raters, subgroup Baseline TETRAS-PS Severity > Median","−1.3 (−4.8, 2.3)"
same,"TETRAS-PS Total Score change from baseline to Day 28, LS mean (SE)",[2]; [5],−3.5 (1.47)
same,"TETRAS-PS Total Score change from baseline to Day 28, Mean (SD)",[2]; [5],−3.6 (4.14)
same,"TETRAS-PS Total Score change from baseline to Day 28, Median (minimum, maximum)",[2]; [5],"−3.0 (−11, 2.5)"
same,"TETRAS-PS Total Score change from baseline to Day 28, LS mean difference from placebo (95% CI)","[2]; Independent Video Raters, subgroup No Beta-blocker Use at Day 1","−1.2 (−4.3, 1.8)"
same,"TETRAS-PS Total Score change from baseline to Day 28, LS mean (SE)",[2]; [6],−1.3 (1.10)
same,"TETRAS-PS Total Score change from baseline to Day 28, Mean (SD)",[2]; [6],−1.6 (4.99)
same,"TETRAS-PS Total Score change from baseline to Day 28, Median (minimum, maximum)",[2]; [6],"−2.0 (−11, 7.0)"
same,"TETRAS-PS Total Score change from baseline to Day 28, LS mean difference from placebo (95% CI)","[2]; Independent Video Raters, subgroup No Concurrent Tremor Medication at Day 1","−2.0 (−5.8, 1.8)"
same,"TETRAS-PS Total Score change from baseline to Day 28, LS mean (SE)",[2]; [7],−4.3 (2.05)
same,"TETRAS-PS Total Score change from baseline to Day 28, Median (minimum, maximum)",[2]; [7],"−3.3 (−11, 7.0)"
same,"TETRAS-PS Total Score change from baseline to Day 28, LS mean difference from placebo (95% CI)","[2]; Independent Video Raters, subgroup Using Beta-blocker at Day 1","1.4 (−1.4, 4.3)"
same,"TETRAS-PS Total Score change from baseline to Day 28, LS mean (SE)",[2]; [8],−2.5 (1.36)
same,"TETRAS-PS Total Score change from baseline to Day 28, Mean (SD)",[2]; [8],−1.5 (3.68)
same,"TETRAS-PS Total Score change from baseline to Day 28, Median (minimum, maximum)",[2]; [8],"−1.3 (−9.5, 4.0)"
same,"TETRAS-PS Total Score change from baseline to Day 28, LS mean difference from placebo (95% CI)","[2]; Independent Video Raters, subgroup Using Concurrent Tremor Medication at Day 1","1.8 (−0.7, 4.3)"
same,"TETRAS-PS Total Score change from baseline to Day 28, LS mean (SE)",[2]; [9],−1.6 (1.14)
same,"TETRAS-PS Total Score change from baseline to Day 28, Mean (SD)",[2]; [9],−1.1 (3.71)
same,"TETRAS-PS Total Score change from baseline to Day 28, Median (minimum, maximum)",[2]; [9],"−1.3 (−9.5, 5.5)"
same,"TETRAS-PS Total Score change from baseline to Day 28, LS mean difference from placebo (95% CI)","[2]; Investigator Rated, subgroup Baseline TETRAS-PS Severity <=Median","−1.2 (−3.1, 0.6)"
same,"TETRAS-PS Total Score change from baseline to Day 28, LS mean (SE)",[2]; [10],−3.8 (0.67)
same,"TETRAS-PS Total Score change from baseline to Day 28, Mean (SD)",[2]; [10],−3.4 (3.74)
same,"TETRAS-PS Total Score change from baseline to Day 28, Median (minimum, maximum)",[2]; [10],"−3.0 (−13.5, 1.0)"
same,"TETRAS-PS Total Score change from baseline to Day 28, LS mean difference from placebo (95% CI)","[2]; Investigator Rated, subgroup Baseline TETRAS-PS Severity > Median","−3.5 (−7.4, 0.4)"
same,"TETRAS-PS Total Score change from baseline to Day 28, LS mean (SE)",[2]; [11],−5.6 (1.60)
same,"TETRAS-PS Total Score change from baseline to Day 28, Mean (SD)",[2]; [11],−5.8 (4.48)
same,"TETRAS-PS Total Score change from baseline to Day 28, Median (minimum, maximum)",[2]; [11],"−6.0 (−13, 4.5)"
same,"TETRAS-PS Total Score change from baseline to Day 28, LS mean difference from placebo (95% CI)","[2]; Investigator Rated, subgroup No Beta-blocker Use at Day 1","−4.3 (−7.0, −1.7)"
same,"TETRAS-PS Total Score change from baseline to Day 28, LS mean (SE)",[2]; [12],−5.6 (0.97)
same,"TETRAS-PS Total Score change from baseline to Day 28, Mean (SD)",[2]; [12],−4.5 (3.89)
same,"TETRAS-PS Total Score change from baseline to Day 28, Median (minimum, maximum)",[2]; [12],"−4.0 (−12.4, 1.0)"
same,"TETRAS-PS Total Score change from baseline to Day 28, LS mean difference from placebo (95% CI)","[2]; Investigator Rated, subgroup No Concurrent Tremor Medication at Day 1","−4.4 (−7.4, −1.3)"
same,"TETRAS-PS Total Score change from baseline to Day 28, LS mean (SE)",[2]; [13],−6.2 (1.60)
same,"TETRAS-PS Total Score change from baseline to Day 28, Mean (SD)",[2]; [13],−5.0 (3.97)
same,"TETRAS-PS Total Score change from baseline to Day 28, Median (minimum, maximum)",[2]; [13],"−4.5 (−12.5, 1.0)"
same,"TETRAS-PS Total Score change from baseline to Day 28, LS mean difference from placebo (95% CI)","[2]; Investigator Rated, subgroup Using Beta-blocker at Day 1","−0.3 (−3.6, 3.0)"
same,"TETRAS-PS Total Score change from baseline to Day 28, LS mean (SE)",[2]; [14],−3.6 (1.56)
same,"TETRAS-PS Total Score change from baseline to Day 28, Mean (SD)",[2]; [14],−4.2 (4.55)
same,"TETRAS-PS Total Score change from baseline to Day 28, Median (minimum, maximum)",[2]; [14],"−4.0 (−13.5, 4.5)"
same,"TETRAS-PS Total Score change from baseline to Day 28, LS mean difference from placebo (95% CI)","[2]; Investigator Rated, subgroup Using Concurrent Tremor Medication at Day 1","−0.5 (−3.2, 2.3)"
same,"TETRAS-PS Total Score change from baseline to Day 28, LS mean (SE)",[2]; [15],−3.5 (1.29)
same,"TETRAS-PS Total Score change from baseline to Day 28, Mean (SD)",[2]; [15],−3.9 (4.31)
same,"TETRAS-PS Total Score change from baseline to Day 28, Median (minimum, maximum)",[2]; [15],"−3.5 (−13.5, 4.5)"
same,>5 to 10 point worsening,[2]; Day 15,0 n (%)
same,>10 point worsening,[2]; Day 15,0 n (%)
same,>5 to 10 point worsening,[2]; Day 28,0 n (%)
same,>10 point worsening,[2]; Day 28,0 n (%)
same,"TETRAS-PS change from baseline to Day 28, Mean (SD)",[2]; independent video raters,−1.6 (4.36)
same,"TETRAS-PS change from baseline to Day 28, Median",[2]; independent video raters,−1.5
same,"TETRAS-PS change from baseline to Day 28, Mean (SD)",[2]; investigator rated,−4.4 (4.16)
same,"TETRAS-PS change from baseline to Day 28, Median",[2]; investigator rated,−4.0
